Drawing on a melting point compilation (Tetko et al.; mined from patent text by program, amines drawn as free bases though some values may be those of a salt), this text covers melting point for 91 compounds.

The structures appear in SMILES notation.

The compound `CCOC(=O)C(=O)Nc1ccc2cccc([N+](=O)[O-])c2c1NC(=O)C(=O)OCC` returned a melting point of 173 to 175 °C.

`CCCC(=O)c1cnc2c(C)cccc2c1Nc1ccc(OC)cc1C` yielded a melting point of 114 to 115 °C.

The compound `CN(C)C(=O)COC(=O)c1cc(-c2ccccc2)c(=O)n2c1-c1ccccc1C2` came in with a melting point of 177 to 179 °C.

In turn, `O=C(C=Cc1ccccc1)C(Cc1ccccc1)C(=O)C=Cc1ccccc1` (stereo unspecified) returned a melting point of 156 to 158 °C.

The compound `CN1CCC(Sc2ccccc2)C(C#N)C1` (stereo unspecified) displayed a melting point of 114 °C.

Take `O=C(c1ccccc1Cl)c1cc(Cl)ccc1I`: the melting point fell in the range of 64 to 66 °C.

Consider `COC1CCN(c2cc(NC(=O)OC(C)(C)C)c(NC(=O)CC(=O)c3cccc(C#N)c3)cc2C#Cc2ccccc2)CC1`, for which the melting point is 97 to 100 °C.

Consider `COc1cc2c(C3C(=O)Nc4ccccc43)ncnc2cc1OCc1ccccc1` (stereo unspecified), for which the melting point lay within 280 to 285 °C.

`O=C(O)Cn1cc(Cc2nc3c(F)c(F)cc(F)c3s2)c2cc(F)ccc21` returned a melting point of 193 to 195 °C.

The compound `CNCc1nc(-c2cc(C(C)(C)C)c(O)c(C(C)(C)C)c2)cs1` showed a melting point of 136 °C.

Compound `Oc1ccc([C@H]2CC[C@H](NCC#Cc3ccccc3)CC2)cc1` showed a melting point of 131 to 136 °C.

With `C[C@@H](NC(=O)[C@@H](NC(=O)[C@H](CCCc1ccc(-c2ccccc2)c(Cl)c1)CC(=O)NO)C(C)(C)C)c1ccccc1`, the melting point was 107 to 109 °C.

The compound `O=C(Nc1cc2cccnc2cc1N1CCCCC1)c1csc2cncnc12` had a melting point above 300 °C.

In turn, `Oc1cccc2nscc12` displayed a melting point of 184 to 186 °C.

Take `COc1cc(C=CC(=O)c2ccc(O)c(CC(=O)O)c2)cc(OC)c1OC`: the melting point came out at 210 °C.

Regarding `O=c1cc(-c2cncnc2)oc2c(O)c(O)ccc12`, the melting point was above 300 °C.

In the case of `O=CNc1nc(S(=O)(=O)Nc2c(F)cccc2F)n[nH]1`, the melting point lay within 258 to 260 °C.

`CC1(C)CC(N2CCN(c3ccccc3)C2=O)c2cc(C#N)ccc2O1` (stereo unspecified) showed a melting point of 166 to 168 °C.

`O=C(NCC1Cc2ccc3c(c2O1)CCC3)OCc1ccccc1` (stereo unspecified): the melting point is 99 to 101 °C.

The compound `COC(=O)c1nc(C)ccc1OC` gave a melting point of 55 to 57 °C.

With `COc1cccc(CO)c1F`, the melting point is 53 to 57 °C.

Turning to `COC(=O)c1ccc(NC(C)=O)cc1NC(=O)NC(C)C`, the melting point lay within 153 to 155 °C.

`NSc1nc(N)nc2c1ncn2C1OC(CO)C(O)C1O` (stereo unspecified) had a melting point of 190 to 192 °C.

In the case of `CN(C(=O)OC(C)(C)C)c1cc(Oc2cccnc2)ccc1N`, the melting point fell in the range of 101 to 102 °C.

For the compound `COc1ccc(OCC2CN(C(C)CO)C(=O)O2)cc1` (stereo unspecified), the melting point was in the range of 62 to 67 °C.

Take `CC1CC(=O)c2c(SCc3ccccc3)ccc(-c3ccccn3)c2C1` (stereo unspecified): the melting point lay in the range of 163 to 165 °C.

In turn, `CCc1nc(-c2ccc(OCCCN3CCOCC3)cc2)no1` had a melting point of 52 to 53 °C.

`CC1(C)CC(c2ccc(F)cc2)=C(/C=C/[C@H]2C[C@H](O)CC(=O)O2)C(C)(C)C1` (relative stereo) displayed a melting point of 121 to 122 °C.

In the case of `Clc1ccc2c(c1)SCc1cccnc1C2=C1CCNCC1`, the melting point is 206 to 215 °C.

On to `CCOC(=O)C=Cc1ccc([N+](=O)[O-])c(O)c1`, for which the melting point is 95 °C.

`COC(=O)c1cc2cc(NS(=O)(=O)c3cccc(Cl)c3C)ccc2o1` registered a melting point of 139 to 140 °C.

Compound `CS(=O)(=O)c1ccc(C(CC2CCCC2)C(=O)Nc2ccc3ccccc3n2)cc1[N+](=O)[O-]` (stereo unspecified) displayed a melting point of 102 to 106 °C.

On to `Cc1cccc(-n2nc(C)c3c(=O)c4ccccc4[nH]c32)n1`, for which the melting point is 252 °C.

With `CC(C)(C(=O)O)c1ccc2oc(-c3ccccc3)nc2c1`, the melting point fell in the range of 92 to 95 °C.

As for `CCOC(=Cc1ccc(C(=O)OC)cc1)c1ccc2c(c1)C(C)(C)CCC2(C)C`, the melting point was 204 to 206 °C.

Regarding `O=C(Cc1ccc(F)cc1C(=O)O)Nc1cccc(/C=C/c2nc(C3CCC3)cs2)c1`, the melting point lay in the range of 211 to 212 °C.

`CC(C)(C)CC(=O)NC[C@H]1CN(c2ccc(N3CCC(=CC#N)CC3)c(F)c2)C(=O)O1` came in with a melting point of 210 to 212 °C.

In the case of `CCCCC1CCCCCc2c1oc(=O)c(C(c1ccccc1)C1CC1)c2O` (stereo unspecified), the melting point was 78 to 82 °C.

Turning to `CCC1(CC)c2ccccc2-c2ccccc21`, the melting point lay in the range of 29 to 30 °C.

Turning to `CC(C)[C@H](NC(=O)N(C)Cc1csc(NC(=O)OC(C)(C)C)n1)C(=O)N[C@@H](Cc1ccccc1)C[C@H](O)[C@H](Cc1ccccc1)NC(=O)OCc1cccnc1`, the melting point fell in the range of 103 to 105 °C.

In turn, `COc1ccc2c(=O)c3oc4c5ccccc5ccc4c3oc2c1` displayed a melting point of 282 to 284 °C.

`CCCCNC(=O)c1nc2cnn(CC)c2nc1OCC` showed a melting point of 115 to 117 °C.

`COc1ccc(C2CCN(c3c(C)c(C)c4c(c3C)C(O)(c3ccc(F)cc3)C(C)(C)O4)CC2)cc1OC` (stereo unspecified): the melting point lay in the range of 150 to 152 °C.

Turning to `COc1ccc(C2=NN(C3CCN(S(=O)(=O)N(C)C)CC3)C(=O)C(C)(C)C2)cc1OC`, the melting point fell in the range of 172 to 174 °C.

`Cc1cc(=O)n(-c2cccc(Cl)c2)n1C` had a melting point of 98 to 100 °C.

Take `CCC(C)(CC)C(=O)N[C@H]1C[C@@H]2c3cccc4[nH]c(C)c(c34)C[C@H]2N(C)C1`: the melting point is 191 to 192 °C.

`CCCC(=O)c1cnc(C(CC2CCCC2)c2ccc(S(C)(=O)=O)cc2)[nH]1` (stereo unspecified) displayed a melting point of 159 to 163 °C.

`CCOC(=O)c1cn(N)c2nc(C)ccc2c1=O` yielded a melting point of 173 to 174 °C.

Consider `CCCCCCCCCCCCCCCCCCOc1cc(OCCCOc2ccccc2)cc(N(CC(=O)O)CC(=O)O)c1`, for which the melting point lay in the range of 99 to 102 °C.

`CC(=O)COc1ccc2ccc(=O)oc2c1` gave a melting point of 168 to 170 °C.

Consider `CCOC1=NS(=O)(=O)C(C(=O)OC(C)(C)C)=C1N`, for which the melting point lay in the range of 128 to 130 °C.

In turn, `COC(=O)NNc1cc(C)c(-c2cccc([N+](=O)[O-])c2)nn1` registered a melting point of 198 to 199 °C.

As for `Cn1cc(CO)c2c3c(c(-c4ccccc4Cl)cc21)C(=O)NC3=O`, the melting point lay within 270 to 274 °C.

The compound `COc1ccc(C(=O)n2c3c(c4ccccc42)CC(C(=O)O)(C(=O)O)CC3)cc1` gave a melting point of 205 to 207 °C.

For the compound `COC(=O)c1nc(-c2ccc(Cl)c(S(C)=O)c2F)nc(N)c1Cl` (stereo unspecified), the melting point fell in the range of 256 to 258 °C.

`COC(=O)NC1=NC(c2ccc3ccccc3c2)CN1` (stereo unspecified) gave a melting point of 227 to 228 °C.

In turn, `CCOC(=O)NNc1cc(C)c(-c2ccccc2)nn1` returned a melting point of 143 to 145 °C.

In turn, `CC(C)(C)OC(=O)NC1CCCCc2cc(OCC3CCCCC3)ccc21` (stereo unspecified) registered a melting point of 125 to 126 °C.

Regarding `CNC(=NS(C)(=O)=O)NCCCCc1csc(NC(N)=NCCO)n1`, the melting point was in the range of 128 to 132 °C.

The compound `CC(C(N)=O)c1ccc2c(c1)CCc1cccnc1S2` (stereo unspecified) registered a melting point of 174 to 175 °C.

Turning to `Cc1cc(-c2ccccc2)nc2nc(N)ccc12`, the melting point lay in the range of 253 to 255 °C.

Compound `COc1cccc(C2CCCCN(Cc3ccccc3)C2=O)c1` (stereo unspecified) came in with a melting point of 120 to 122 °C.

In the case of `COc1ccc(Oc2ccc(/C=C/C(=O)O)cc2)cc1`, the melting point was in the range of 165 to 167 °C.

Turning to `COC(=O)c1sc(-c2ccc(F)cc2)cc1-c1nnn(C)n1`, the melting point came out at 132 °C.

The compound `COc1ccc(-c2nc(N(C)C)c3c(C)c(C#N)sc3n2)cc1` gave a melting point of 123 to 125 °C.

With `CCCCOCCOc1ccc(-c2ccc3c(c2)C=C(C(=O)Nc2ccc(C(O)c4ccccn4)cc2)CCS3(=O)=O)cc1` (stereo unspecified), the melting point lay in the range of 173 to 174 °C.

Consider `Cc1cc(Cc2cc(C)cc(C(C)(C)C)c2O)c(O)c(-n2nc3ccccc3n2)c1`, for which the melting point was 167 °C.

In the case of `CC(=O)NCc1cccc2c1C(=O)N(C1CCC(=O)NC1=O)C2=O` (stereo unspecified), the melting point is 177 to 179 °C.

On to `CC(C)Nc1c(C#N)cnn1-c1c(Cl)cc(SC(F)(F)F)cc1Cl`, for which the melting point came to 130 °C.

For the compound `CC(=N)Nc1cc(C)ccc1N1CCOCC1`, the melting point amounted to 121 °C.

As to `COc1ccc(C(=O)Nc2ccc(F)cc2)cc1NC(=S)Nc1ccc(C(=O)O)cc1`, the melting point lay in the range of 203 to 205 °C.

The compound `Nc1c(F)c(Cl)c(O)c(Cl)c1F` displayed a melting point of 151 °C.

On to `CS(=O)(=O)c1ccc(-c2onc3c2-c2ccccc2CC3)cc1`, for which the melting point lay in the range of 181 to 182 °C.

In turn, `CCOC(=O)COc1cc2c(c(O)c1Cl)C(=O)CC1(CCCCC1)O2` showed a melting point of 103 to 104 °C.

The compound `Cc1[nH]cnc1CN1CCC(N)=CC1=O` came in with a melting point of 268 to 271 °C.

As to `Nc1nc2cc(C(=O)c3ccccc3)ccc2n1CCC(=O)O`, the melting point was 325 to 330 °C.

The compound `CN1Cc2c(C#N)ncn2-c2ccc(F)cc2C1=O` returned a melting point of 236 to 237 °C.

In the case of `Fc1cccc(F)c1-c1ncc(-c2ccc(Br)cc2)cn1`, the melting point lay within 193 to 194 °C.

Compound `CC(C)(O)C1CCN(Cc2ccccc2)CC1` showed a melting point of 66 °C.

In turn, `CCOC(=O)/C=C(\c1cccc(C(F)(F)F)c1)c1ccc(OC)c(OC)c1` showed a melting point of 72 to 74 °C.

In turn, `Cc1nc(N)nc(N)c1OCCCOc1ccccc1C(F)(F)F` showed a melting point of 132 to 134 °C.

The compound `COCCOc1ccc(/C=C/C(=O)O)c(OCc2nc(-c3ccccc3)oc2C)c1` returned a melting point of 194 to 196 °C.

Compound `NS(=O)(=S)CCCc1ccccc1` (stereo unspecified) returned a melting point of 98 to 101 °C.

For `O=C(CC1c2ccccc2CCc2ccccc21)Nc1ccc(C(=O)O)cc1`, the melting point lay within 248 to 250 °C.

As for `O=Cc1cccnc1Br`, the melting point lay within 74 to 76 °C.

`COc1ccc(-c2cc(=O)c3c(OC)c(I)c(OC)cc3o2)cc1` gave a melting point of 191 to 194 °C.

On to `CCC1(c2ccc(C(O)C(C)(C)C)cc2)OCCO1` (stereo unspecified), for which the melting point lay within 52 to 56 °C.

`COCc1nc2c(N)nc3c(c2n1CC(C)(C)OCCS(C)(=O)=O)CCCC3` showed a melting point of 195 to 197 °C.

`Nc1cc(Br)c(Br)cc1[N+](=O)[O-]` came in with a melting point of 198 to 199 °C.

Take `CSc1c[nH]c2ncnc(Cl)c12`: the melting point fell in the range of 166 to 167 °C.

As for `O=C(NCCO)c1cccc(-c2cccc3nn(Cc4cccc(C(F)(F)F)c4)cc23)c1`, the melting point was 136 to 137 °C.

One may read the melting point as the temperature of the solid-liquid transition.
